Results taken from patent US10188108B2, “Fused bicyclic heterocycle derivatives as pesticides” (BAYER CROPSCIENCE AKTIENGESELLSCHAFT, priority 2015, dated 2019).

How the values were obtained:
[1] = test system: Ctenocephalides felis; test: Ctenocephalides felis - in vitro contact tests with adult cat fleas; format: in vivo; settings: 5 μg/cm^2 (=500 g/ha), after 48 h, adult cat fleas dead or moribund
Procedure: (§1) For the coating of the test tubes, 9 mg of active compound are first dissolved in 1 ml of acetone p.a. and then diluted to the desired concentration with acetone p.a. 250 μl of the solution are distributed homogeneously on the inner walls and the base of a 25 ml test tube by turning and rocking on an orbital shaker (rocking rotation at 30 rpm for 2 h). With 900 ppm active compound solution and internal surface 44.7 cm^2, given homogeneous distribution, an area-based dose of 5 μg/cm^2 is achieved.
After the solvent has evaporated off, the tubes are populated with 5-10 adult cat fleas (Ctenocephalides felis), sealed with a perforated plastic lid and incubated in a horizontal position at room temperature and ambient humidity. After 48 h, efficacy is determined. To this end, the test tubes are stood upright and the fleas are knocked to the base of the tube. Fleas which remain motionless at the base or move in an uncoordinated manner are considered to be dead or moribund.
100% efficacy means that all the fleas were dead or moribund. 0% efficacy means that no fleas were harmed.

[2] = log P by HPLC on a reversed-phase column (C 18), EEC Directive 79/831 Annex V.A8; format: physicochemical; settings: 55° C.; for LOGP_HCOOH: acidic range, pH 2.7, 0.1% aqueous formic acid/acetonitrile; for LOGP_NEUTRAL: neutral range, pH 7.8, 0.001 molar aqueous ammonium hydrogencarbonate/acetonitrile
Procedure: The log P values are measured according to EEC Directive 79/831 Annex V.A8 by HPLC (high-performance liquid chromatography) on a reversed-phase column (C 18). Temperature: 55° C.
The LC-MS determination in the acidic range is effected at pH 2.7 using 0.1% aqueous formic acid and acetonitrile (contains 0.1% formic acid) as eluents; linear gradient from 10% acetonitrile to 95% acetonitrile. Called log P (HCOOH) in the table.
LC-MS determination in the neutral range is effected at pH 7.8 with 0.001 molar aqueous ammonium hydrogencarbonate solution and acetonitrile as eluents; linear gradient from 10% acetonitrile to 95% acetonitrile. Called log P (neutral) in the table.
Calibration is carried out using unbranched alkan-2-ones (having 3 to 16 carbon atoms) with known log P values (log P values determined on the basis of the retention times by linear interpolation between two successive alkanones).

[3] = test system: Myzus persicae; test: Myzus persicae - spray test (Chinese cabbage leaf discs); format: in vivo; settings: 500 g/ha, after 5-6 days
Procedure: • Solvent: 78 parts by weight of acetone • 1.5 parts by weight of dimethylformamide • Emulsifier: alkylaryl polyglycol ether
(§2) To produce a suitable preparation of active compound, 1 part by weight of active compound is dissolved using the stated parts by weight of solvent and made up with water containing an emulsifier concentration of 1000 ppm until the desired concentration is attained. To produce further test concentrations, the preparation is diluted with emulsifier-containing water.
Discs of Chinese cabbage leaves (Brassica pekinensis) infested by all stages of the green peach aphid (Myzus persicae) are sprayed with an active compound preparation of the desired concentration.
After 5-6 days, the efficacy in % is determined. 100% means that all the aphids have been killed; 0% means that no aphids have been killed.

[4] = test system: Rhipicephalus sanguineus; test: Rhipicephalus sanguineus - in vitro contact tests with adult brown dog ticks; format: in vivo; settings: 5 μg/cm^2 (=500 g/ha), after 48 h, adult dog ticks dead or moribund
Procedure: as §1, with “p.a. and 20 then diluted” for “p.a. and then diluted”
After the solvent has evaporated off, the tubes are populated with 5-10 adult dog ticks (Rhipicephalus sanguineus), sealed with a perforated plastic lid and incubated in a horizontal position in the dark at room temperature and ambient humidity. After 48 h, efficacy is determined. To this end, the ticks are knocked to the base of the tube and incubated on a hotplate at 45-50° C. for not more than 5 min. Ticks which remain motionless on the base or move in such an uncoordinated manner that they are unable to deliberately avoid the heat by climbing upwards are considered to be dead or moribund.
An efficacy of 100% means that all the ticks were dead or moribund. 0% efficacy means that none of the ticks were harmed.

[5] = test system: Spodoptera frugiperda; test: Spodoptera frugiperda - spray test; format: in vivo; settings: 500 g/ha, after 7 days, caterpillars on maize leaf discs
Procedure: (§3) • Solvent: 78.0 parts by weight of acetone • 1.5 parts by weight of dimethylformamide • Emulsifier: alkylaryl polyglycol ether
as §2
Leaf discs of maize (Zea mays) are sprayed with an active compound preparation of the desired concentration and, after drying, populated with caterpillars of the armyworm (Spodoptera frugiperda).
After 7 days, the efficacy in % is determined. 100% means that all the caterpillars have been killed; 0% means that no caterpillars have been killed.

[6] = test system: Ctenocephalides felis; test: Ctenocephalides felis - oral test; format: in vivo; settings: 100 ppm in citrated cattle blood, after 2 days, adult cat fleas
Procedure: • Solvent: dimethyl sulphoxide To produce a suitable preparation of active compound, 10 mg of active compound are mixed with 0.5 ml of dimethyl sulphoxide. Dilution with citrated cattle blood gives the desired concentration. About 20 unfed adult cat fleas (Ctenocephalides felis) are placed into a chamber which is closed at the top and bottom with gauze. A metal cylinder whose bottom end is closed with parafilm is placed onto the chamber. The cylinder contains the blood/active compound preparation, which can be imbibed by the fleas through the parafilm membrane. After 2 days, the kill in % is determined. 100% means that all of the fleas have been killed; 0% means that none of the fleas have been killed.

[7] = test system: Boophilus microplus; test: Boophilus microplus - injection test; format: in vivo; settings: 20 μg/animal injected, engorged adult female cattle ticks, laying of fertile eggs after 7 days
Procedure: • Solvent: dimethyl sulphoxide
To produce a suitable preparation of active compound, 10 mg of active compound are mixed with 0.5 ml of solvent and the concentrate is diluted with solvent to the desired concentration.
1 μl of the active compound solution is injected into the abdomen of 5 engorged adult female cattle ticks (Boophilus microplus). The animals are transferred into dishes and kept in a climate-controlled room.
Efficacy is assessed after 7 days by laying of fertile eggs. Eggs which are not visibly fertile are stored in a climate-controlled cabinet until the larvae hatch after about 42 days. An efficacy of 100% means that none of the ticks has laid any fertile eggs; 0% means that all the eggs are fertile.

[8] = test system: Lucilia cuprina; test: Lucilia cuprina test; format: in vivo; settings: 100 ppm, after 2 days, L1 larvae
Procedure: • Solvent: dimethyl sulphoxide To produce a suitable preparation of active compound, 10 mg of active compound are mixed with 0.5 ml of dimethyl sulphoxide, and the concentrate is diluted with water to the desired concentration. About 20 L1 larvae of the Australian sheep blowfly (Lucilia cuprina) are transferred into a test vessel containing minced horsemeat and the active compound preparation of the desired concentration. After 2 days, the kill in % is determined. 100% means that all the larvae have been killed; 0% means that no larvae have been killed.

[9] = test system: Phaedon cochleariae; test: Phaedon cochleariae - spray test; format: in vivo; settings: 500 g/ha, after 7 days, larvae on Chinese cabbage leaf discs
Procedure: as §3, §2
After 7 days, the efficacy in % is determined. 100% means that all the beetle larvae have been killed; 0% means that no beetle larvae have been killed.

[10] = test system: Musca domestica; test: Musca domestica test; format: in vivo; settings: after 2 days, adult houseflies
Procedure: • Solvent: dimethyl sulphoxide To produce a suitable preparation of active compound, 10 mg of active compound are mixed with 0.5 ml of dimethyl sulphoxide, and the concentrate is diluted with water to the desired concentration. Vessels containing a sponge treated with sugar solution and the active compound preparation of the desired concentration are populated with 10 adult houseflies (Musca domestica). After 2 days, the kill in % is determined. 100% means that all of the flies have been killed; 0% means that none of the flies have been killed.

[11] = test system: Meloidogyne incognita; test: Meloidogyne incognita test; format: in vivo; settings: 20 ppm, after 14 days, formation of galls on lettuce roots
Procedure: • Solvent: 125.0 parts by weight of acetone To produce a suitable preparation of active compound, 1 part by weight of active compound is mixed with the stated amount of solvent and the concentrate is diluted with water to the desired concentration. Vessels are filled with sand, active compound solution, an egg/larvae suspension of the southern root-knot nematode (Meloidogyne incognita) and lettuce seeds. The lettuce seeds germinate and the plants develop. The galls develop on the roots. After 14 days, the nematicidal efficacy in % is determined by the formation of galls. 100% means that no galls were found; 0% means that the number of galls on the treated plants corresponds to the untreated control.

[12] = test system: Myzus persicae; test: Myzus persicae spray test (bell pepper plants); format: in vivo; settings: 100 ppm, after 6 days
Procedure: • Solvent: 14 parts by weight of dimethylformamide • Emulsifier: alkylaryl polyglycol ether
as §2, with “water. If the addition of ammonium salts or/and penetrants is required, these are each added in a concentration of 1000 ppm to the formulation solution.” for “water.”
Bell pepper plants (Capsicum annuum) severely infested with the green peach aphid (Myzus persicae) are treated by spraying with the active compound preparation in the desired concentration.
After 6 days, the kill in % is determined. 100% means that all of the aphids have been killed; 0% means that none of the aphids have been killed.

[13] = test system: Tetranychus urticae; test: Tetranychus urticae - spray test, OP-resistant; format: in vivo; settings: 500 g/ha, after 6 days, bean leaf discs
Procedure: as §3, §2
Discs of bean leaves (Phaseolus vulgaris) infested with all stages of the greenhouse red spider mite (Tetranychus urticae) are sprayed with an active compound preparation of the desired concentration.
After 6 days, the efficacy in % is determined. 100% means that all the spider mites have been killed; 0% means that no spider mites have been killed.

[14] = test system: Haemonchus contortus; test: Haemonchus contortus test; format: in vivo; settings: 20 ppm, after 5 days, larvae
Procedure: • Solvent: Dimethyl Sulphoxide To produce a suitable preparation of active compound, 10 mg of active compound are mixed with 0.5 ml of dimethyl sulphoxide and the concentrate is diluted with “Ringer's solution” to the desired concentration. Vessels containing the active compound preparation of the desired concentration are populated with about 40 larvae of the red stomach worm (Haemonchus contortus). After 5 days, the kill in % is determined. 100% means that all the larvae have been killed; 0% means that none of the larvae have been killed.

LOGP_HCOOH [2]	LOGP_NEUTRAL [2]	SMILES	efficacy [1] [%]	efficacy [3] [%]	efficacy [4] [%]	efficacy [5] [%]	efficacy (kill) [6] [%]	efficacy [7] [%]	efficacy (kill) [8] [%]	efficacy [9] [%]	efficacy (kill) ([10]; 4 ppm) [%]	nematicidal efficacy [11] [%]	efficacy (kill) [12] [%]	efficacy [13] [%]	efficacy (kill) [14] [%]	efficacy (kill) ([10]; 20 ppm) [%]
2.98		CCS(=O)(=O)c1c(-c2nc3cc(C(F)(F)F)ccc3n2C)nc2ccc(C)cn12 [Example I-35]	100	90	80	100										
2.70	2.64	CCS(=O)(=O)c1c(-c2nc3cc(C(F)(F)F)ccc3n2C)nc2ccccn12 [Example I-10]				100			100	100			100			

Second part, the compound before the results:

SMILES	LOGP_HCOOH [2]	LOGP_NEUTRAL [2]	efficacy [1] [%]	efficacy [3] [%]	efficacy [4] [%]	efficacy [5] [%]	efficacy (kill) [6] [%]	efficacy [7] [%]	efficacy (kill) [8] [%]	efficacy [9] [%]	efficacy (kill) ([10]; 4 ppm) [%]	nematicidal efficacy [11] [%]	efficacy (kill) [12] [%]	efficacy [13] [%]	efficacy (kill) [14] [%]	efficacy (kill) ([10]; 20 ppm) [%]
CC[S+]([O-])c1c(-c2nc3cc(C(F)(F)F)ncc3n2C)nc2cc(C(F)(F)F)ccn12 (stereo not drawn) [Example I-18]	3.29	3.25	100			100	100	95	100	100	95					
CCSc1c(-c2nc3cc(C(F)(F)F)cnc3n2C)nc2ccccn12 [Example I-52]	3.43	3.39								100		100				
CCS(=O)(=O)c1c(-c2nc3cc(C(F)(F)F)cnc3n2C)nc2ccccn12 [Example I-59]	2.58	2.49	100	90	100	100	80		100	100				90	80	80
